Patent US11293001B2, “Microfluidic cell culture systems” (9493662 Canada Inc., priority 2013, dated 2022)

Columns and labels:
[1] = tested on: hippocampal and DRG axons; assay: Axonal elastic modulus by AFM nano-indentation (modified Hertz model); assay type: cell-based, rat
Experimental: (§1) To minimize remodeling and maintain the parallel organization of the axons in the cultures, DRG neurons were cultured at a density four-times lower than hippocampal neurons and were tested within 7-10 days in culture, whereas hippocampal axons were tested after 14-18 days in culture.
Simultaneous compression and live imaging of single axons were performed on a Bioscope AFM mounted on an inverted optical microscope using a 100× objective (1.45 NA) and 1K charge-coupled device camera. Two different compression experiments were performed. In the first, a 20-mm polystyrene bead was fixed, see Reference [8], to the tip of silicon nitride probes with a nominal spring constant of k=0.01 N/m and used to compress axons with controlled force ranging from 0.1 nN≤F≤4 nN for different time periods. In the second, tipless n-type silicon probes with nominal spring constant of k=0.03 N/m were used to apply constant force to axons. […]
Modeling the underlying glass plane as a sphere with an infinite radius, then the term accounting for the deformation induced by the plane is negligible. Using the method of Reference [13] the δBead-Cylinder can be calculated using Equation (2) where γ is the Poisson ratio of the axon or the bead, E is the Young's modulus of the material, F is the total force applied, e is the eccentricity of the ellipse of contact, and K and

[2] = tested on: DRG and hippocampal axons; assay: Immunocytochemistry: distribution of cytosolic components in axons with impaired transport; assay type: cell-based, rat
Experimental: as §1
Immunocytochemistry was performed as described in Reference [8] with mouse anti-tubulin, rabbit anti neurofilament, rabbit polyclonal anti-Tom20 (mitochondrial preprotein translocases of the outer membrane FL-145); and Alexa Fluor™ 488 conjugated phalloidin. The secondary antibodies used were Rhodamine Red antimouse IgG and Alexa Fluor™ 647 anti-rabbit IgG. Samples were imaged using a laser scanning confocal microscope with a 60× PlanApo oilimmersion objective on an inverted microscope.
To investigate the reason for the higher resistance of DRG axons to compression and to vinblastine effects, the inventors investigated the composition and distribution of cytosolic components in axons with impaired transport. […] The inventors analyzed the distribution of mitochondria, actin, neurofilament, and tubulin after blockade of axonal transport.

[3] = increasing vinblastine concentration
[4] = 1 hour treatment, FIG. 4C insert
[5] = increasing vinblastine concentrations, 1 hour
[6] = vinblastine 5 nM or 500 nM for 1 hour, fixed, AFM

Substance: vinblastine sulfate salt
- average elastic modulus at 30% of indentation (EM30%) ([1]; 5 nM vinblastine, p<0.001): significantly decreased
- slope of the elastic modulus curve as a function of percentage indentation [1, 3]: decreased proportionally with increasing vinblastine concentration
- tubulin and neurofilament aggregation at FAS [2, 3]: proportional increase
- distribution of actin ([2]; vinblastine-treated axons): concentrated between FAS
- distribution of mitochondria ([2]; vinblastine-treated axons): changed from uniform to a discontinuous punctate pattern
- neurofilaments and microtubules ([2]; vinblastine-treated axons): collapsed and accumulated at FAS
- vinblastine concentration at which the volume of the non-FAS segment decreased (hippocampal axons; [4]): 5 nM
- volume of single FAS (hippocampal axons; [5]): did not significantly change
- number and size of FAS (focal axonal swelling) (hippocampal axons; [6]): increased with increasing vinblastine concentrations
- vinblastine concentration at which the volume of the non-FAS segment decreased (DRG axons; [4]): 500 nM
- volume of single FAS (DRG axons; [5]): increased with increasing vinblastine concentrations
- number and size of FAS (focal axonal swelling) (DRG axons; [6]): increased with increasing vinblastine concentrations
